# Results: patent US9573966B2, “Anti-cancer activity of novel bicyclic heterocycles” (Katholieke Universiteit Leuven, K.U.Leuven R&D, priority 2010, dated 2017)
# pIC50: −log10 of the molar value.
# Legend:
# [1] = tested on: HSB-2 cells; experiment: Inhibition of HSB-2 leukemic cell line proliferation (WST-1); assay type: cell-based, human; conditions: Homo sapiens, HSB2, 48 h, cytotoxicity on HSB-2 cells, two days incubation, WST-1 read-out
# Summary of the method: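 HSB-2 human ALL cells, 50000/well in RPMI-1640 + 10% FCS, exposed to compounds 2 days at 37 °C, then WST-1 2 h, OD 450 nm. Proliferation scaled between untreated (max) and Triton X100 (min) controls; IC50 from ≥4-point curves, each point mean of ≥2 experiments.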
# [2] = tested on: HL-60 cells; experiment: Inhibition of HL-60 leukemic cell line proliferation (WST-1); assay type: cell-based, human; conditions: Homo sapiens, 48 h; cytotoxicity on HL-60 cells, two days incubation, WST-1 read-out
# Summary of the method: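 HL-60 cells, 50000/well, exposed to compounds for two days at 37 °C, then 2 h WST-1 with OD at 450 nm. Proliferation scaled between untreated and Triton X100 controls; IC50 from at least four points, each a mean of ≥2 experiments.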
# [3] = tested on: LNCaP cells; experiment: Inhibition of LNCaP prostate carcinoma cell line proliferation (WST-1); assay type: cell-based; conditions: Homo sapiens, 48 h; cytotoxicity on LNCaP cells, two days incubation, WST-1 read-out
# Protocol: LNCaP cell line, a prostate carcinoma cell line, was grown in RPMI-1640 medium (Lonza, Belgium) supplemented with 10% fetal calf serum (Hyclone, US) and antibiotics. Exponential growing phase cells were seed in flat bottom 96-well microplates (TTP, Switzerland) at 10000 cells per well in 200 μl of medium. The day after, 20 μl of compounds (in different concentrations) were added and incubated for two days at 37° C., 5% CO2. After incubation, 100 μl of supernatant were removed and 10 μl of WST-1 (Roche, Switzerland) were added. After 2 hour incubation at 37° C., 5% CO2, optical densities were measured at 450 nm. Proliferation is calculated with respect of control points (no compound and treatment with Triton X100 to have maximum and minimum proliferation data). The IC50 was determined from a graph with at least four points, each derived from the mean of at least 2 experiments. […] The results are shown in Table 3 for a number of compounds.
# [4] = tested on: hu EOL-1 leukemia
# Protocol: The test compound (Example 222) was dissolved in DMSO (5% final concentration) and further solubilised in 0.5% Tween 80 in 1% methylcellulose. The resulting suspension was warmed for 10 minutes to 37° C. in an ultrasound water bath to obtain a homogeneous formulation for oral administration. At day 0, 24 male NSG mice received a s.c. inoculum of 10^7 EOL-1 cells taken from in vitro culture and mixed with 50% matrigel. At day 10 tumours were palpable, mice were randomized into three treatment groups and therapy initiated. The test compound (Example 222) and the vehicle were administered orally (p.o.) once daily until the end of the experiment. Cyclophosphamide was administered only once intraperitoneally (i.p.).
Compound,melting point [°C],pIC50 [1],pIC50 [2],pIC50 [3],"behavioural changes or deaths ([4]; EOL-1 xenograft in NSG mice, Example 222 p.o. once daily)","antileukemic activity ([4]; EOL-1 xenograft model, conclusion)","body weight loss ([4]; mouse, in vivo) [%]","tolerability ([4]; mouse, in vivo)","effect on tumour growth (tumour volume) relative to vehicle ([4]; s.c. EOL-1 tumours in NSG mice, therapy from day 10 to day 21, Example 222 p.o. once daily, cyclophosphamide once i.p.)"
"CCOc1nc(N)nc2sc(-c3ccc(F)cc3)cc12 [Example 363, 4-ethoxy-6-(4-fluorophenyl)thieno[2,3-d]pyrimidin-2-amine]",142,–,–,–,–,–,–,–,–
"Cc1ccc(NC(=O)N2CCN(c3nc(N)nc4sc(-c5cccnc5)nc34)CC2)cc1 [Example 222, 4-(5-amino-2-(pyridin-3-yl)thiazolo[5,4-d]pyrimidin-7-yl)-N-p-tolylpiperazine-1-carboxamide]",–,7.30,7.30,5.54,did not lead to any behavioural changes or deaths,significant antileukemic activity,11,well tolerated,moderate but significant (p<0.05) delay of tumour growth
"Cc1cccc(NC(=O)N2CCN(c3nc(N)nc4sc(-c5cccnc5)nc34)CC2)c1 [Example 276, 4-(5-amino-2-(pyridin-3-yl)thiazolo[5,4-d]pyrimidin-7-yl)-N-m-tolylpiperazine-1-carboxamide]",–,7.30,7.22,5.52,–,–,–,–,–
"Cc1cccc(OCC(=O)N2CCN(c3nc(N)nc4sc(-c5cccnc5)nc34)CC2)c1 [Example 275, 1-(4-(5-amino-2-(pyridin-3-yl)thiazolo[5,4-d]pyrimidin-7-yl)piperazin-1-yl)-2-(m-tolyloxy)ethanone]",–,7.15,7.30,5.96,–,–,–,–,–
"Nc1nc(N2CCN(C(=O)COc3ccc(Cl)cc3)CC2)c2nc(-c3cccnc3)sc2n1 [Example 121a, 5-amino-7-[4-(4-chlorophenoxyacetyl)piperazin-1-yl]-2-(pyridine-3-yl)thiazolo[5,4-d]pyrimidine]",–,6.70,6.64,4.32,–,–,–,–,–
